Numbers after ± are expanded uncertainties.
Assays:
[1] = Ring tensiometer
[2] = xn = mol fraction of the nth substance listed; conditions: Ring tensiometer

C[S+](C)[O-] [dimethyl sulfoxide]
[1]
Conditions	surface tension liquid-gas [mN/m]
298.15 K	42.43 ± 0.74
308.15 K	41.3 ± 0.73
318.15 K	40.17 ± 0.71
328.15 K	39.08 ± 0.69

C[S+](C)[O-] [dimethyl sulfoxide] + CC(C)O
surface tension liquid-gas [mN/m], [2]
Conditions	298.15 K	308.15 K	318.15 K	328.15 K
x2 = 0	42.43 ± 0.74	41.3 ± 0.73	40.17 ± 0.71	39.08 ± 0.69
x2 = 0.044	39.17 ± 0.71	38.58 ± 0.7	37.9 ± 0.69	36.91 ± 0.67
x2 = 0.085	36.42 ± 0.66	35.88 ± 0.65	34.99 ± 0.64	34.12 ± 0.63
x2 = 0.157	33.83 ± 0.62	32.83 ± 0.6	32.05 ± 0.59	31.15 ± 0.58
x2 = 0.245	30.89 ± 0.57	30.21 ± 0.56	29.55 ± 0.55	28.39 ± 0.54
x2 = 0.338	28.56 ± 0.54	27.7 ± 0.53	27.02 ± 0.52	26 ± 0.5
x2 = 0.441	26.67 ± 0.51	25.88 ± 0.5	25.19 ± 0.49	24.1 ± 0.47
x2 = 0.537	25.15 ± 0.49	24.46 ± 0.48	23.87 ± 0.47	22.79 ± 0.45
x2 = 0.619	24.19 ± 0.47	23.39 ± 0.46	22.81 ± 0.45	21.74 ± 0.44
x2 = 0.676	23.19 ± 0.46	22.84 ± 0.45	22.06 ± 0.44	21.08 ± 0.43
x2 = 0.719	23.03 ± 0.46	22.48 ± 0.45	21.67 ± 0.43	20.72 ± 0.42
x2 = 0.751	22.84 ± 0.45	22.21 ± 0.44	21.43 ± 0.43	20.45 ± 0.42
x2 = 0.86	22 ± 0.44	21.21 ± 0.43	20.51 ± 0.42	19.59 ± 0.4

C[S+](C)[O-] [dimethyl sulfoxide] + CCO
surface tension liquid-gas [mN/m], [2]
Conditions	298.15 K	308.15 K	318.15 K	328.15 K
x2 = 0	42.43 ± 0.74	41.3 ± 0.73	40.17 ± 0.71	39.08 ± 0.69
x2 = 0.087	39.25 ± 0.7	38.32 ± 0.68	37.35 ± 0.67	36.37 ± 0.65
x2 = 0.174	36.69 ± 0.66	35.75 ± 0.64	34.88 ± 0.63	33.99 ± 0.62
x2 = 0.261	34.4 ± 0.62	33.6 ± 0.61	32.69 ± 0.6	31.87 ± 0.58
x2 = 0.348	32.29 ± 0.59	31.5 ± 0.58	30.73 ± 0.57	29.99 ± 0.56
x2 = 0.435	30.48 ± 0.56	29.71 ± 0.55	28.95 ± 0.54	28.22 ± 0.53
x2 = 0.522	28.84 ± 0.54	28.08 ± 0.53	27.33 ± 0.51	26.61 ± 0.5
x2 = 0.609	27.34 ± 0.51	26.58 ± 0.5	25.83 ± 0.49	25.21 ± 0.48
x2 = 0.696	26.04 ± 0.49	25.22 ± 0.48	24.44 ± 0.47	23.64 ± 0.46
x2 = 0.783	24.63 ± 0.47	23.91 ± 0.46	23.14 ± 0.45	22.36 ± 0.44
x2 = 0.87	23.4 ± 0.45	22.7 ± 0.44	21.91 ± 0.43	21.07 ± 0.42

C[S+](C)[O-] [dimethyl sulfoxide] + CO
surface tension liquid-gas [mN/m], [2]
Conditions	298.15 K	308.15 K	318.15 K	328.15 K
x2 = 0	42.43 ± 0.74	41.3 ± 0.73	40.17 ± 0.71	39.08 ± 0.69
x2 = 0.077	41.31 ± 0.73	40.2 ± 0.71	39.15 ± 0.69	38.06 ± 0.68
x2 = 0.154	40.03 ± 0.71	38.95 ± 0.69	37.91 ± 0.68	36.84 ± 0.66
x2 = 0.231	38.59 ± 0.69	37.54 ± 0.67	36.58 ± 0.66	35.55 ± 0.64
x2 = 0.308	37.1 ± 0.66	36.16 ± 0.65	35.2 ± 0.64	34.25 ± 0.62
x2 = 0.384	35.6 ± 0.64	34.69 ± 0.63	33.78 ± 0.61	32.84 ± 0.6
x2 = 0.462	34.07 ± 0.62	33.18 ± 0.6	32.31 ± 0.59	31.45 ± 0.58
x2 = 0.538	32.46 ± 0.59	31.62 ± 0.58	30.79 ± 0.57	29.96 ± 0.56
x2 = 0.615	30.84 ± 0.57	30.03 ± 0.56	29.22 ± 0.54	28.41 ± 0.53
x2 = 0.693	29.2 ± 0.54	28.38 ± 0.53	27.56 ± 0.52	26.79 ± 0.51
x2 = 0.769	27.5 ± 0.52	26.69 ± 0.51	25.84 ± 0.49	24.96 ± 0.48
x2 = 0.846	25.77 ± 0.49	24.89 ± 0.48	24.2 ± 0.47	23.31 ± 0.46
x2 = 0.9	24.56 ± 0.47	23.67 ± 0.46	22.88 ± 0.45	21.94 ± 0.43

CCO [ethanol]
[1]
Conditions	surface tension liquid-gas [mN/m]
298.15 K	21.66 ± 0.43
308.15 K	21.01 ± 0.42
318.15 K	20.19 ± 0.4
328.15 K	19.23 ± 0.39

CCO [ethanol] + C[S+](C)[O-]
[2], x1 = 1
Conditions	surface tension liquid-gas [mN/m]
298.15 K	21.66 ± 0.43
308.15 K	21.01 ± 0.42
318.15 K	20.19 ± 0.4
328.15 K	19.23 ± 0.39

CO [methanol]
[1]
Conditions	surface tension liquid-gas [mN/m]
298.15 K	22.24 ± 0.44
308.15 K	21.41 ± 0.42
318.15 K	20.53 ± 0.41
328.15 K	19.54 ± 0.4

CO [methanol] + C[S+](C)[O-]
[2], x1 = 1
Conditions	surface tension liquid-gas [mN/m]
298.15 K	22.24 ± 0.44
308.15 K	21.41 ± 0.42
318.15 K	20.53 ± 0.41
328.15 K	19.54 ± 0.4

CC(C)O [propan-2-ol]
[1]
Conditions	surface tension liquid-gas [mN/m]
298.15 K	21.15 ± 0.43
308.15 K	20.29 ± 0.42
318.15 K	19.53 ± 0.4
328.15 K	18.51 ± 0.39

CC(C)O [propan-2-ol] + C[S+](C)[O-]
[2], x1 = 1
Conditions	surface tension liquid-gas [mN/m]
298.15 K	21.15 ± 0.43
308.15 K	20.29 ± 0.42
318.15 K	19.53 ± 0.4
328.15 K	18.51 ± 0.39

O [water]
Conditions	surface tension liquid-gas [mN/m]
[1], 298.15 K	72.05 ± 1.2

— the NIST ThermoML archive (doi:10.1016/j.jct.2016.06.004)
